Data published in patent US11299712B2, “Method for inducing differentiation of alveolar epithelial cells” (KYOTO UNIVERSITY, priority 2015, dated 2022).

Test system: type II alveolar epithelial cells
Test: Three-dimensional subculture of type II alveolar epithelial cells (AT2-P0 to AT2-P1) in medium for Step 5 with additives, SFTPC-GFP reporter cells
Assay type: cell-based, human
Conditions: for percentage of type II alveolar epithelial cells maintained of the whole including fibroblasts used for coculture / percentage of type II alveolar epithelial cells maintained relative to the epithelial cell component: AT2-P1, medium for Step 5 plus additive (300 ng/ml WIF, 100 ng/ml IGF2, 10 ng/ml EGF, 20 ng/ml NRG1 β, 3 μM CHIR99021); for percentage of type II alveolar epithelial cells maintained of the whole including fibroblasts used for coculture: control 9.4%; for percentage of type II alveolar epithelial cells maintained relative to the epithelial cell component: control 48.4%; for maintenance of type II alveolar epithelial cells compared with medium supplemented with EGF, NRG1β, CHIR99021: WIF1 300 ng/ml or IGF2 100 ng/ml vs EGF 10 ng/ml, NRG1β 20 ng/ml, CHIR99021 3 μM; for maintenance of type II alveolar epithelial cells in subculture (FIG. 17): medium for Step 5 supplemented with WIF1 (300 ng/ml) or IGF2 (100 ng/ml)
Description: On Day 35 of type II alveolar epithelial cell induction in Example 1 (i.e., upon completion of Step 5), the cell mass composed of fibroblasts and spheroids subjected to three-dimensional coculture was removed from the Cell Culture Inserts. The removed cell mass was cut into small pieces of approximately 1 mm with the use of a clean surgical knife, the cells were recovered with the addition of PBS, and centrifugation was carried out at 900 rpm for 5 minutes to remove the supernatant. 0.1% Trypsin/EDTA was added to the precipitate and incubation was then carried out at 37° C. for 15 minutes while adequately repeating pipetting.
Subsequently, DMEM supplemented with 2% FBS was added to neutralize trypsin, followed by centrifugation at 4° C. and 900 rpm for 7 minutes. The supernatant was suction-removed, 1% BSA/PBS was added to the remaining cell pellet, and the resultant was centrifuged again at 4° C. and 900 rpm for 5 minutes. The cell pellet was suspended in 1% BSA/PBS, the mouse anti-human Ep-CAM antibody (Santa Cruz) was added thereto, and the reaction was allowed to proceed at 4° C. for 20 minutes.
Subsequently, the cells were washed 2 times with 1% BSA/PBS, the ALEXA FLUOR® 647-labeled anti-mouse antibody (Life Technologies) was added thereto, and the reaction was allowed to proceed at 4° C. for 20 minutes. After the reaction product was washed 2 times with 1% BSA/PBS, propidium iodide was added in the end, and SFTPC-GFP-positive cells were isolated via FACS with the use of BD FACSAria® II or Aria® III (BD Biosciences). The isolated cells were used as the type II alveolar epithelial cells (AT2-P0).
When type II alveolar epithelial cells were to be subcultured, the type II alveolar epithelial cells were mixed with human fetal lung fibroblasts immediately after isolation, or cryopreserved type II alveolar epithelial cells were mixed with human fetal lung fibroblasts at a ratio of 1:50, the cell suspension of the medium for Step 5 comprising the cells at a cell density of 2.5×10^6 cells/ml and Y-27632 at the final concentration of 10 μM was mixed with MATRIGEL® (Corning) at a ratio of 1:1 at a low temperature, the resultant was immediately added to the upper layer of the Cell Culture Inserts, and the medium for Step 5 was added to the lower layer. The amount to be added to the upper layer of the 12-well plate Cell Culture Inserts is preferably 200 to 400 μL and the amount to be added to the lower layer thereof is preferably 1 ml.
On the first 2 days after the subculture, Y-27632 was added to the medium for Step 5 to the final concentration of 10 μM. Thereafter, the medium for Step 5 of the lower layer was selectively exchanged with another medium every other day. The type II alveolar epithelial cells were isolated 14 days after the initiation of culture, and culture was continued by repeating the three-dimensional coculture with the human fetal lung fibroblasts. As a subculture goes on to the following generation, the cells were designated as AT2-P1, AT2-P2. . . .

| Compound | percentage of type II alveolar epithelial cells maintained of the whole including fibroblasts used for coculture [%] | percentage of type II alveolar epithelial cells maintained relative to the epithelial cell component [%] | maintenance of type II alveolar epithelial cells compared with medium supplemented with EGF, NRG1β, CHIR99021 | maintenance of type II alveolar epithelial cells in subculture (FIG. 17) |
| --- | --- | --- | --- | --- |
| Cc1c[nH]c(-c2cnc(NCCNc3ccc(C#N)cn3)nc2-c2ccc(Cl)cc2Cl)n1 [CHIR99021, 6-[2-[4-(2,4-dichlorophenyl)-5-(4-methyl-1H-imidazol-2-yl)pyrimidin-2-ylamino]-ethylamino]pyridine-3-carbonitrile, reference compound] | 0.5 | 23.8 |  |  |
| EGF: EGF (Wako), medium additive | 1.2 | 5.3 |  |  |
| IGF2: protein encoded by the polynucleotide shown in NCBI Accession Number NM_000612 (R&D Systems) | 16.6 | 58.0 | maintained with higher efficiency | efficiently maintained |
| WIF1: WNT signal inhibitor; protein encoded by the polynucleotide shown in NCBI Accession Number NM_007191 (R&D Systems) | 20.2 | 54.4 | maintained with higher efficiency | efficiently maintained |
